Measured values taken from ChEMBL document CHEMBL1201862, “PubChem BioAssay data set” (2004).
“And” between values parts separate entries of the source, which are not always exact repeats. Identical values can stand only once. The source made the active and inactive calls.

Tests used:
[1] = viability of uninfected HEp-2 cells – cell-based, HTS, cytotoxicity control for RSV inhibitor project, dose response (AID 2410); assay type: functional; conditions: human respiratory syncytial virus
Cytochrome P450 2D6 = Cytochrome P450 2D6 (Homo sapiens, UniProt P10635);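 also: CYP2D6 member of a cytochrome P450 panel assay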
[2] = Luminescence Cell-Based Dose Confirmation HTS to Identify Activators of 5'UTR Stem-Loop Driven Alpha-Synuclein mRNA Translation in H4 Neuroglioblastoma Cells. [Related pubchem assays: 1829 (Project Summary), 1814 (Primary HTS)]; assay type: functional
H4 = assay: Luminescence Cell-Based Dose Response HTS to Identify Activators of 5'UTR Stem-Loop Driven Prion Protein mRNA Translation in H4 Neuroglioblastoma Cells. [Related pubchem assays: 1829 (Project Summary), 1814 (Primary HTS)]; assay type: functional; conditions: Homo sapiens
[3] = Luminescence Cell-Based Dose Response HTS to Identify Activators of Luciferase Translation or Activity in H4 […] Cells. [Related pubchem assays: 1829 (Project Summary), 1814 (Primary HTS)]; assay type: functional
Cytochrome P450 2C19 = Cytochrome P450 2C19 (Homo sapiens, UniProt P33261); assay: Cytochrome panel assay with activity outcomes. Panel member name: p450-cyp2c19 Compounds with AC50 equal or less than 10 uM are considered active; assay type: functional; conditions: read-out: AC50
INS1 = assay: INS-1E survival protection against cytokine death – cell-based, luminescence, retest, dose response (AID 449756); assay type: functional; conditions: Rattus norvegicus;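 also: cell death triggered by IL-1 beta plus TNF-alpha plus IFN-gamma mixture; protective hits raise ATP signal compared with cytokine alone wells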
[4] = Trypanosoma cruzi growth suppression in host cells – NIH3T3 host cells, beta-gal luminescence, confirmation (AID 2044); assay type: functional, cell-based;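 also: intracellular parasites grown in NIH/3T3 mouse fibroblasts as host cells; luminescent beta-galactosidase reporter signal from transgenic T. cruzi replicating inside host cells; inhibitors lower the luminescence signal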
[5] = NIH3T3 cell viability loss – ATP luminescence, mouse fibroblasts, counter-screen, dose response (AID 2010); assay type: functional, cell-based;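 also: cells exposed to compound for about 90 hours before reading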
[6] = molecular target: T1, Heat shock factor protein 1 (Mus musculus, UniProt P38532); assay: decrease of HSF1-responsive luciferase luminescence – cell-based, NIH3T3, dose retest, confirmation (AID 2382); assay type: functional;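 also: NIH3T3 fibroblasts with HSF1-driven luciferase reporter stressed by proteasome inhibitor MG132; luminescence from HSF1-driven luciferase expression after 8 hours of MG132 stress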
T1 sequence (P38532 whole entry): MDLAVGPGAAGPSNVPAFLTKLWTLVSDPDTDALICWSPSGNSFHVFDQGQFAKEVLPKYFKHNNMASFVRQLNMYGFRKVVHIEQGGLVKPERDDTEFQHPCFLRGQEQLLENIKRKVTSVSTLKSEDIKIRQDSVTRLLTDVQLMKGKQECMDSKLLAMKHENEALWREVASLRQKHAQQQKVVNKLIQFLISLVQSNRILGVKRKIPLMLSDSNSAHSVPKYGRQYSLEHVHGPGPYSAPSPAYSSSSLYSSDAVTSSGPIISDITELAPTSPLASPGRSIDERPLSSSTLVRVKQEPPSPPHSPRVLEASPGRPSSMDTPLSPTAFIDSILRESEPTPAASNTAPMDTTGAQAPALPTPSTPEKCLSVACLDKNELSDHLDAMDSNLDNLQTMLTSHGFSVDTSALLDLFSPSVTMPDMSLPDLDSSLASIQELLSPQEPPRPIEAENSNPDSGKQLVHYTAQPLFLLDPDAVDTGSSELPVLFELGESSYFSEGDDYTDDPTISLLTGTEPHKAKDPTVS

[7] = fluconazole-exposed Candida albicans growth modulators – fluorescence, retest, confirmation (AID 2467); assay type: functional, cell-based
[8] = NIH-3T3 fibroblast cytotoxicity, dose response, cytotoxicity control, cell-based, fluorescence, Alamar Blue, secondary assay (AID 2327); assay type: functional;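 also: NIH-3T3 mouse fibroblasts cultured with fluconazole at 8 µg/mL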
Cytochrome P450 3A4 = Cytochrome P450 3A4 (Homo sapiens, UniProt P08684);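 also: CYP3A4 tested as one member of a cytochrome P450 panel screen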
Cytochrome P450 2C9 = Cytochrome P450 2C9 (Homo sapiens, UniProt P11712)
[9] = molecular target: T2, RNA-binding protein pos-1 (Caenorhabditis elegans, UniProt G5EF15); assay: disruptors of C. elegans POS-1 RNA interaction – biochemical, fluorescence polarization, dose response (AID 1964);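 also: purified POS-1 fused to maltose binding protein made in E. coli; potency of compounds blocking POS-1 binding to fluorescent RNA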
T2 sequence (G5EF15 whole entry): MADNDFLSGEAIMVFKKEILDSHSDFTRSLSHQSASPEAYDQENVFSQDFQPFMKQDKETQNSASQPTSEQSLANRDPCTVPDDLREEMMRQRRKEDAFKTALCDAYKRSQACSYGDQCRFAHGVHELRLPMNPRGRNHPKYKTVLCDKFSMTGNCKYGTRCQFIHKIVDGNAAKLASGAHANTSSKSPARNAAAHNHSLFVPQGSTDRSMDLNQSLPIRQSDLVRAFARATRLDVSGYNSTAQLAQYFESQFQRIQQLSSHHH

Chain of Cytochrome P450 2C19 (P33261 whole entry): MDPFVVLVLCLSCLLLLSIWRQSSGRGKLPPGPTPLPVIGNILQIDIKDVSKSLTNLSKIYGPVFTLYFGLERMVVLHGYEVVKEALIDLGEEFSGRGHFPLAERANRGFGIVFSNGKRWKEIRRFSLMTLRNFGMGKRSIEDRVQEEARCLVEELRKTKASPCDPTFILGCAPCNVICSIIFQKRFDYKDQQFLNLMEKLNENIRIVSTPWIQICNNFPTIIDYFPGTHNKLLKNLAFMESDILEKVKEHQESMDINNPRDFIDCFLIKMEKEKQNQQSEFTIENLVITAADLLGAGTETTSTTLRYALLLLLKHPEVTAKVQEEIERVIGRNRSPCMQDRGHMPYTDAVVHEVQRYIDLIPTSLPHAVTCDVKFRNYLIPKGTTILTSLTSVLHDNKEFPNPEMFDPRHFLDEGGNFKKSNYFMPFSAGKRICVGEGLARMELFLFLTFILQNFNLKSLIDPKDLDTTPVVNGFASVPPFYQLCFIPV
Chain of Cytochrome P450 2D6 (P10635 whole entry): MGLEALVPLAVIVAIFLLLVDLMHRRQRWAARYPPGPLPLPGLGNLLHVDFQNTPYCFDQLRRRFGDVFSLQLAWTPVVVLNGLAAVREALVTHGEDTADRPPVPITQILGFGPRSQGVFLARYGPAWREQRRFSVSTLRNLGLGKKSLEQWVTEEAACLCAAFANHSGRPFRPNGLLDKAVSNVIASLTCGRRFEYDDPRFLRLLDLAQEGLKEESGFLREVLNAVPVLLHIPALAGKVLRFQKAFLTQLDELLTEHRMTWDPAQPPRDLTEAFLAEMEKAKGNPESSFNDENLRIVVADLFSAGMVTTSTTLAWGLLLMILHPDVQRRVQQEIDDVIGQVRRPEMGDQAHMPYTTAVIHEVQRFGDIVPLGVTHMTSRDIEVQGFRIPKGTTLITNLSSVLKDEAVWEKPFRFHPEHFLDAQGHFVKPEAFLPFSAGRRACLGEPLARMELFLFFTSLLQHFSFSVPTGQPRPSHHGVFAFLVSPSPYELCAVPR
Chain of Cytochrome P450 2C9 (P11712 whole entry, the tested form may be a part): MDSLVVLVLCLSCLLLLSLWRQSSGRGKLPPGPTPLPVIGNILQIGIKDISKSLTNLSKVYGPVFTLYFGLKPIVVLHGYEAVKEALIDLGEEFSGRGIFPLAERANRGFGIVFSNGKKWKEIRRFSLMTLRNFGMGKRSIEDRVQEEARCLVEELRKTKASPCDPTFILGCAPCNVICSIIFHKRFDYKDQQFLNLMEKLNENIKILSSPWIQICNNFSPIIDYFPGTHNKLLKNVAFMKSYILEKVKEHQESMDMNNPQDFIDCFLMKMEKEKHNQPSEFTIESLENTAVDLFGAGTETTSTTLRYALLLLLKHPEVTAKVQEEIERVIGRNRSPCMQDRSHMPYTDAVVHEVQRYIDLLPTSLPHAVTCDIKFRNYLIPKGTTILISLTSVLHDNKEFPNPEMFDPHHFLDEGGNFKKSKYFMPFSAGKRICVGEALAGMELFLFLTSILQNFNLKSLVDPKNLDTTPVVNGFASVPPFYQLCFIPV
Chain of Cytochrome P450 3A4 (P08684 whole entry): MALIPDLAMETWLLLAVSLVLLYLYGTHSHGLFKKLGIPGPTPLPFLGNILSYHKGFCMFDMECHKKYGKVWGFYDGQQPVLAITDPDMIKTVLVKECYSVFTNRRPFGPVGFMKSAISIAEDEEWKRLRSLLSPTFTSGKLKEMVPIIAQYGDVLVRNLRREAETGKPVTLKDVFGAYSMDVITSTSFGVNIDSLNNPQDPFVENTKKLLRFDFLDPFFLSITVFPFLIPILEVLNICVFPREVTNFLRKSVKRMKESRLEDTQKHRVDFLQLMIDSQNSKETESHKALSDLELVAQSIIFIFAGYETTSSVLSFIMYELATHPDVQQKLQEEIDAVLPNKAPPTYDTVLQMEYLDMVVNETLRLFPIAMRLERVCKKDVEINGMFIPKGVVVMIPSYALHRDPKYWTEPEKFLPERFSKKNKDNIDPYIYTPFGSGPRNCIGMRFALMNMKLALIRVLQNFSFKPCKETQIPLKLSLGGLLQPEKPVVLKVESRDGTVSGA

Cc1oc2c(cc(NS(=O)(=O)c3cccs3)c3ccccc32)c1C(=O)OC(C)C
CC50 [1]: 20.3 µM (active)

CCC(C)C(NC(=O)OCc1ccccc1)C(=O)OCN1C(=O)c2ccccc2C1=O (centres undefined)
AC50 (Cytochrome P450 2D6): 0.631 µM (inconclusive)

N#Cc1nc(Cc2ccccc2)oc1NCCc1ccccc1
CC50 [1]: 28.9 µM (active) | EC50 [2]: 4.71 µM (active) | EC50 (H4): 14.5 µM (active) | EC50 [3]: 56.9 µM (active)

C[N+]1(C)CCc2cc3c(cc2[C@@H]1[C@@H]1OC(=O)c2c1ccc1c2OCO1)OCO3
AC50 (Cytochrome P450 2D6): 31.6 µM (inconclusive)

COc1cc(OC)cc(C(=O)NC(=S)NCCc2ccccc2)c1
AC50 (Cytochrome P450 2D6): 10 µM (inconclusive)

COc1ccccc1-c1cncnc1NCc1cccnc1
AC50 (Cytochrome P450 2D6): 39.8 µM (inconclusive)

C[C@H](NC(C)(C)C)C(=O)c1cccc(Cl)c1
AC50 (Cytochrome P450 2D6): 31.6 µM (inconclusive) and 6.31 µM (inconclusive) | AC50 (Cytochrome P450 2C19): 15.8 µM (inconclusive) and 3.16 µM (inconclusive)

CC(=O)Nc1c(S(=O)(=O)c2ccccc2)c2nc3ccccc3nc2n1Cc1ccccc1
AC50 (Cytochrome P450 2D6): 25.1 µM (inconclusive)

O=C(c1cccc(F)c1)N1CCC[C@@]2(CCN(C(c3ccccc3)c3ccccc3)C2)C1
AC50 (Cytochrome P450 2D6): 12.6 µM (inconclusive)

C/C(=N\N=C(/N)SC1CC(=O)N(c2cccc(Cl)c2)C1=O)c1cccs1 (centres undefined)
CC50 [1]: 19.4 µM (active)

COc1cc2c(cc1OC)C(NC(=O)C(F)(F)F)CNC2=O (centres undefined)
AC50 (INS1): > 260 µM (inconclusive)

COc1ccc(C(=O)/C=C/c2ccccc2OC)c(OC(=O)c2ccc([N+](=O)[O-])cc2)c1
CC50 [1]: 19.1 µM (active) | EC50 [2]: 17.3 µM (active) | EC50 (H4): 54.1 µM (inconclusive) | EC50 [3]: 23.8 µM (active)

CCOC(=O)C1(Cc2cccc(Cl)c2)CCCN(C(=O)c2ccc(COC)s2)C1 (centres undefined)
AC50 (INS1): > 260 µM (inactive)

CN/C(=N/C#N)NCCSC[C@H]1N=CN=C1C
AC50 (Cytochrome P450 2D6): 10 µM (inconclusive)

CCN(Cc1ccccc1)C(c1cccs1)c1nnnn1C1CCCCC1 (centres undefined)
EC50 [4]: 3.97 µM (active) | EC50 [5]: 16.3 µM (active) | AC50 (INS1): 9.27 µM (active)

O=c1cc(-c2ccccc2)c2ccc(O)cc2o1
EC50 [6]: 117 µM (active) | EC50 [7]: 2.12 µM (active) | EC50 [8]: > 160 µM (inconclusive)

O=c1cnc2cnc(N3CCOCC3)nc2n1Cc1cccs1
AC50 (Cytochrome P450 3A4): 15.8 µM (inconclusive) | AC50 (Cytochrome P450 2C9): 31.6 µM (inconclusive) | AC50 (Cytochrome P450 2D6): 25.1 µM (inconclusive) | AC50 (Cytochrome P450 2C19): 31.6 µM (inconclusive)

COc1ccc(CCNC(=O)c2ccc3c(c2)N(Cc2ccc(C)cc2)CCS3)cc1OC
CC50 [1]: 35.9 µM (active)

Cc1noc(C)c1-c1ccc2ncnc(N(C)Cc3ccco3)c2c1
AC50 (Cytochrome P450 2D6): 20 µM (inconclusive)

COc1ccc(NC(=O)CSc2nc(C)c3c(c2C#N)CCCC3)cc1
AC50 (Cytochrome P450 2C9): 8.91 µM (inconclusive) | AC50 (Cytochrome P450 2D6): 2.24 µM (inconclusive)

C[N+]1(NCC[N@@+]2(C)CCc3ccccc3C2)CCCCC1
AC50 (Cytochrome P450 2D6): 1.58 µM (inconclusive)

CC(=O)/N=c1\c(C#N)cc2c(=O)n3cccc(C)c3nc2n1CCCOC(C)C
EC50 [9]: > 300 µM (not active)

O=C(c1cc2c(s1)-c1ccccc1OC2)N1CCC2(CC1)OCCO2
EC50 [7]: 2.9 µM (active) | EC50 [8]: 43.1 µM (active)

Cc1cccc(Cc2nnc(CCC(=O)N3CCCCC3c3nccs3)o2)c1 (centres undefined)
EC50 [7]: > 38 µM (not active) | EC50 [8]: > 160 µM (inactive)

CCOC(=O)CSc1ccc(C(=O)N2CCN(C)CC2)cc1[N+](=O)[O-]
EC50 [7]: > 38 µM (not active) | EC50 [8]: > 160 µM (inactive)

CCCCSc1ccc(NC(=O)c2cccnc2)cc1
AC50 (INS1): 8.46 µM (active)
